Measurements reported in ChEMBL document CHEMBL1155003, “Halicyclamine A, a marine spongean alkaloid as a lead for anti-tuberculosis agent” (2008).
In brackets after ≈: the same amount, converted by molar mass. Activity calls are given as the source filed them. The rule behind the calls is not given here.

What was measured:
[1] = test system: Mycolicibacterium smegmatis; experiment: Antitubercular activity against Mycobacterium smegmatis MC2 155 under aerobic condition after 24 hrs by MTT method; format: functional; conditions: str. MC2 155, 24 h
[2] = test system: Mycolicibacterium smegmatis; experiment: Antitubercular activity against Mycobacterium smegmatis MC2 155 under hypoxic condition after 96 hrs by MTT method; format: functional; conditions: str. MC2 155, 96 h
[3] = test system: Mycobacterium tuberculosis; experiment: Antitubercular activity against Mycobacterium tuberculosis H37Ra under aerobic condition after 7 days by MTT method; format: functional; conditions: 168 h
[4] = test system: Mycobacterium tuberculosis; experiment: Antitubercular activity against Mycobacterium tuberculosis H37Ra under hypoxic condition after 14 days by MTT method; format: functional; conditions: 336 h
[5] = test system: Mycobacterium tuberculosis; experiment: Antitubercular activity against Mycobacterium tuberculosis H37Rv ATCC 25618 after 14 days; format: functional; conditions: 336 h
[6] = test system: Mycobacterium tuberculosis; experiment: Antitubercular activity against Mycobacterium tuberculosis Kurono ATCC 35812 after 14 days; format: functional; conditions: 336 h
[7] = test system: Mycobacterium avium; experiment: Antitubercular activity against Mycobacterium avium ATCC 35712 after 14 days; format: functional; conditions: ATCC 35712, 336 h
[8] = test system: Mycobacterium intracellulare; experiment: Antitubercular activity against Mycobacterium intracellular ATCC 35761 after 14 days; format: functional; conditions: ATCC 35761, 336 h
[9] = test system: Mycobacterium kansasii; experiment: Antitubercular activity against Mycobacterium kansasii ATCC 35775 after 14 days; format: functional; conditions: ATCC 35775, 336 h
[10] = test system: Mycolicibacterium fortuitum; experiment: Antitubercular activity against Mycobacterium fortuitum ATCC 9820 after 14 days; format: functional; conditions: ATCC 9820, 336 h
[11] = test system: Mycolicibacterium aurum; experiment: Antitubercular activity against Mycobacterium aurum ATCC 23366 after 14 days; format: functional; conditions: ATCC 23366, 336 h
[12] = test system: Mycolicibacterium smegmatis; experiment: Bactericidal activity against Mycobacterium smegmatis MC2 155 assessed as decrease in CFU at 10 ug/ml after 4 days; format: functional, organism-based; conditions: str. MC2 155
[13] = test system: Mycobacterium tuberculosis; experiment: Bactericidal activity against Mycobacterium tuberculosis H37Rv assessed as decrease in CFU at 20 ug/ml after 11 to 28 days; format: functional
[14] = test system: Mycolicibacterium smegmatis; experiment: Antitubercular activity against Mycobacterium smegmatis MC2 155 ICHO1001 with pMV261 transformant; format: functional; conditions: str. MC2 155
[15] = test system: Mycolicibacterium smegmatis; experiment: Antitubercular activity against guaB1 gene over-expressed Mycobacterium smegmatis MC2 155 ICHO1002; format: functional; conditions: str. MC2 155
[16] = test system: Mycolicibacterium smegmatis; experiment: Antitubercular activity against guaB2 gene over-expressed Mycobacterium smegmatis MC2 155 ICHO1003; format: functional; conditions: str. MC2 155
[17] = test system: Mycolicibacterium smegmatis; experiment: Antitubercular activity against guaB3 gene over-expressed Mycobacterium smegmatis MC2 155 ICHO1004; format: functional; conditions: str. MC2 155

`C1=C2CCCC/C=C\C=C\CCN3CC[C@@H]4[C@H](CCCCCC/C=C\C=C/CCN(C2)C[C@H]14)C3` [HALICYCLAMINE A] was tested, and the MIC [1] was 2.5 µg/mL (≈ 5.4 µM), the MIC [2] was 2.5 µg/mL (≈ 5.4 µM) and the MIC [3] was 5 µg/mL (≈ 10.8 µM). For the same compound, the MIC [4] was 5 µg/mL (≈ 10.8 µM), the MIC [5] was 6.25 µg/mL (≈ 13.5 µM) and the MIC [6] was 3.13 µg/mL (≈ 6.76 µM). The MIC [7] was 6.25 µg/mL (≈ 13.5 µM), the MIC [8] was 6.25 µg/mL (≈ 13.5 µM) and the MIC [9] was 3.13 µg/mL (≈ 6.76 µM). The MIC [10] was 25 µg/mL (≈ 54 µM), the MIC [11] was 6.25 µg/mL (≈ 13.5 µM) and the Activity [12] was “Active”. The CFU/ml [13] was less than 10, the MIC [14] was 2.5 µg/mL (≈ 5.4 µM) and the MIC [15] was 2.5 µg/mL (≈ 5.4 µM). The MIC [16] was 2.5 µg/mL (≈ 5.4 µM) and the MIC [17] was 2.5 µg/mL (≈ 5.4 µM).
`NNC(=O)c1ccncc1` [ISONIAZID] was tested, and the MIC [1] was 2.5 µg/mL (≈ 18.2 µM), the MIC [2] was 25 µg/mL (≈ 182 µM) and the MIC [3] was 0.05 µg/mL (≈ 0.365 µM). It also gave an MIC [4] greater than 100 µg/mL.
